Measurements reported in PubChem BioAssay (NCI).
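In this assay, cells in 96-well plates receive the compound at five concentrations for 48 hours. Endpoints are linearly interpolated between the surrounding concentrations. Here, GI50 denotes the concentration required for 50% inhibition of growth. TGI: total growth inhibition.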

How the values were obtained:
Assay in all cases: inhibition of tumour cell growth, NCI panel, 48 h
786-0 renal = tested on: 786-0 renal
KM12 colon = tested on: KM12 colon
UACC-257 melanoma = tested on: UACC-257 melanoma
HL-60(TB) leukemia = tested on: HL-60(TB) leukemia
EKVX NSCLC = tested on: EKVX NSCLC
SNB-19 CNS = tested on: SNB-19 CNS
RPMI-8226 leukemia = tested on: RPMI-8226 leukemia
NCI/ADR-RES ovarian = tested on: NCI/ADR-RES ovarian
SR leukemia = tested on: SR leukemia
U251 CNS = tested on: U251 CNS
TK-10 renal = tested on: TK-10 renal
SK-MEL-2 melanoma = tested on: SK-MEL-2 melanoma
NCI-H522 lung = tested on: NCI-H522 lung
PC-3 prostate = tested on: PC-3 prostate
HCC-2998 colon = tested on: HCC-2998 colon
HT29 colon = tested on: HT29 colon
HOP-92 NSCLC = tested on: HOP-92 NSCLC
SW-620 colon = tested on: SW-620 colon
SK-MEL-5 melanoma = tested on: SK-MEL-5 melanoma
HCT-15 colon = tested on: HCT-15 colon
T-47D breast = tested on: T-47D breast
K-562 leukemia = tested on: K-562 leukemia
IGROV1 ovarian = tested on: IGROV1 ovarian
NCI-H23 lung = tested on: NCI-H23 lung
COLO 205 colon = tested on: COLO 205 colon
UO-31 renal = tested on: UO-31 renal
SF-295 CNS = tested on: SF-295 CNS
OVCAR-3 ovarian = tested on: OVCAR-3 ovarian
UACC-62 melanoma = tested on: UACC-62 melanoma
LOX IMVI melanoma = tested on: LOX IMVI melanoma
CCRF-CEM leukemia = tested on: CCRF-CEM leukemia
HOP-62 NSCLC = tested on: HOP-62 NSCLC
MOLT-4 leukemia = tested on: MOLT-4 leukemia
CAKI-1 renal = tested on: CAKI-1 renal
OVCAR-8 ovarian = tested on: OVCAR-8 ovarian
OVCAR-5 ovarian = tested on: OVCAR-5 ovarian
OVCAR-4 ovarian = tested on: OVCAR-4 ovarian
MDA-MB-231 breast = tested on: MDA-MB-231 breast
A498 renal = tested on: A498 renal
BT-549 breast = tested on: BT-549 breast
SNB-75 CNS = tested on: SNB-75 CNS
A549 NSCLC = tested on: A549 NSCLC
NCI-H460 lung = tested on: NCI-H460 lung
SF-268 CNS = tested on: SF-268 CNS
NCI-H226 lung = tested on: NCI-H226 lung
MALME-3M melanoma = tested on: MALME-3M melanoma
SK-OV-3 ovarian = tested on: SK-OV-3 ovarian
SN12C renal = tested on: SN12C renal
RXF 393 renal = tested on: RXF 393 renal
MDA-MB-435 = tested on: MDA-MB-435
MCF7 breast = tested on: MCF7 breast
SF-539 CNS = tested on: SF-539 CNS
DU-145 prostate = tested on: DU-145 prostate
M14 melanoma = tested on: M14 melanoma
ACHN renal = tested on: ACHN renal
SK-MEL-28 melanoma = tested on: SK-MEL-28 melanoma
HS 578T breast = tested on: HS 578T breast
HCT-116 colon = tested on: HCT-116 colon
MDA-N = tested on: MDA-N

C(=N/Nc1ncnc2nc[nH]c12)/c1ccccn1
GI50 (786-0 renal): 1.65 µM
TGI (786-0 renal): 5.43 µM
GI50 (KM12 colon): 0.661 µM
TGI (KM12 colon): > 100 µM
GI50 (UACC-257 melanoma): 1.87 µM
TGI (UACC-257 melanoma): 7.96 µM
GI50 (HL-60(TB) leukemia): 1.01 µM
TGI (HL-60(TB) leukemia): 7.07 µM
GI50 (EKVX NSCLC): 0.386 µM
TGI (EKVX NSCLC): 40.5 µM
GI50 (SNB-19 CNS): 0.98 µM
TGI (SNB-19 CNS): > 100 µM
GI50 (RPMI-8226 leukemia): 3.9 µM
TGI (RPMI-8226 leukemia): > 100 µM
GI50 (NCI/ADR-RES ovarian): 0.382 µM
TGI (NCI/ADR-RES ovarian): > 22.3 µM
GI50 (SR leukemia): 0.4 µM
TGI (SR leukemia): > 100 µM
GI50 (U251 CNS): 0.569 µM
TGI (U251 CNS): > 100 µM
GI50 (TK-10 renal): 0.452 µM
TGI (TK-10 renal): > 100 µM
GI50 (SK-MEL-2 melanoma): 1.34 µM
TGI (SK-MEL-2 melanoma): > 100 µM
GI50 (NCI-H522 lung): 0.551 µM
TGI (NCI-H522 lung): > 100 µM
GI50 (PC-3 prostate): 0.786 µM
TGI (PC-3 prostate): > 100 µM
GI50 (HCC-2998 colon): 0.422 µM
TGI (HCC-2998 colon): > 36.8 µM
GI50 (HT29 colon): 4.07 µM
TGI (HT29 colon): > 100 µM
GI50 (HOP-92 NSCLC): 3.14 µM
TGI (HOP-92 NSCLC): 8.72 µM
GI50 (SW-620 colon): 1.71 µM
TGI (SW-620 colon): > 100 µM
GI50 (SK-MEL-5 melanoma): 1.28 µM
TGI (SK-MEL-5 melanoma): 4.61 µM
GI50 (HCT-15 colon): 1.11 µM
TGI (HCT-15 colon): > 100 µM
GI50 (T-47D breast): 0.308 µM
TGI (T-47D breast): > 100 µM
GI50 (K-562 leukemia): 0.803 µM
TGI (K-562 leukemia): > 100 µM
GI50 (IGROV1 ovarian): 2.11 µM
TGI (IGROV1 ovarian): 20.9 µM
GI50 (NCI-H23 lung): 2.91 µM
TGI (NCI-H23 lung): > 100 µM
GI50 (COLO 205 colon): 1.72 µM
TGI (COLO 205 colon): > 100 µM
GI50 (UO-31 renal): 0.265 µM
TGI (UO-31 renal): 3.09 µM
GI50 (SF-295 CNS): 0.774 µM
TGI (SF-295 CNS): 16 µM
GI50 (OVCAR-3 ovarian): 0.421 µM
TGI (OVCAR-3 ovarian): > 47 µM
GI50 (UACC-62 melanoma): 0.514 µM
TGI (UACC-62 melanoma): 3.24 µM
GI50 (LOX IMVI melanoma): 0.525 µM
TGI (LOX IMVI melanoma): > 100 µM
GI50 (CCRF-CEM leukemia): 0.227 µM
TGI (CCRF-CEM leukemia): > 100 µM
GI50 (HOP-62 NSCLC): 0.687 µM
TGI (HOP-62 NSCLC): > 100 µM
GI50 (MOLT-4 leukemia): 0.367 µM
TGI (MOLT-4 leukemia): > 100 µM
GI50 (CAKI-1 renal): 0.308 µM
TGI (CAKI-1 renal): 2.64 µM
GI50 (OVCAR-8 ovarian): 0.393 µM
TGI (OVCAR-8 ovarian): > 100 µM
GI50 (OVCAR-5 ovarian): 1.02 µM
TGI (OVCAR-5 ovarian): > 100 µM
GI50 (OVCAR-4 ovarian): 0.3 µM
TGI (OVCAR-4 ovarian): > 100 µM
GI50 (MDA-MB-231 breast): 0.609 µM
TGI (MDA-MB-231 breast): > 100 µM
GI50 (A498 renal): 6.17 µM
TGI (A498 renal): > 100 µM
GI50 (BT-549 breast): 1.86 µM
TGI (BT-549 breast): > 100 µM
GI50 (SNB-75 CNS): 1.73 µM
TGI (SNB-75 CNS): 35.1 µM
GI50 (A549 NSCLC): 1.27 µM
TGI (A549 NSCLC): > 100 µM
GI50 (NCI-H460 lung): 3.29 µM
TGI (NCI-H460 lung): > 50.8 µM
GI50 (SF-268 CNS): 0.342 µM
TGI (SF-268 CNS): > 23.7 µM
GI50 (NCI-H226 lung): 1.57 µM
TGI (NCI-H226 lung): 53.1 µM
GI50 (MALME-3M melanoma): 0.268 µM
TGI (MALME-3M melanoma): 5.62 µM
GI50 (SK-OV-3 ovarian): 0.456 µM
TGI (SK-OV-3 ovarian): 15.6 µM
GI50 (SN12C renal): 0.84 µM
TGI (SN12C renal): > 65.1 µM
GI50 (RXF 393 renal): 1.92 µM
TGI (RXF 393 renal): 7.32 µM
GI50 (MDA-MB-435): 1.08 µM
TGI (MDA-MB-435): > 100 µM
GI50 (MCF7 breast): 0.444 µM
TGI (MCF7 breast): > 100 µM
GI50 (SF-539 CNS): 1.3 µM
TGI (SF-539 CNS): 5.72 µM
GI50 (DU-145 prostate): 0.596 µM
TGI (DU-145 prostate): > 49.3 µM
GI50 (M14 melanoma): 0.766 µM
TGI (M14 melanoma): 3.63 µM
GI50 (ACHN renal): 1.19 µM
TGI (ACHN renal): 14.1 µM
GI50 (SK-MEL-28 melanoma): 1.2 µM
TGI (SK-MEL-28 melanoma): > 100 µM
GI50 (HS 578T breast): 12.7 µM
TGI (HS 578T breast): > 100 µM
GI50 (HCT-116 colon): 0.46 µM
TGI (HCT-116 colon): > 100 µM

Nc1ncnc2c1ncn2[C@@H]1C[C@H]1CO
TGI (786-0 renal): > 100 µM
TGI (KM12 colon): > 100 µM
TGI (UACC-257 melanoma): > 100 µM
TGI (HL-60(TB) leukemia): > 100 µM
TGI (EKVX NSCLC): > 100 µM
TGI (SNB-19 CNS): > 100 µM
TGI (RPMI-8226 leukemia): > 100 µM
TGI (NCI/ADR-RES ovarian): > 100 µM
TGI (SR leukemia): > 100 µM
TGI (U251 CNS): > 100 µM
TGI (SK-MEL-2 melanoma): > 100 µM
TGI (NCI-H522 lung): > 100 µM
TGI (PC-3 prostate): > 100 µM
TGI (HCC-2998 colon): > 100 µM
TGI (HT29 colon): > 100 µM
TGI (SW-620 colon): > 100 µM
TGI (HCT-15 colon): > 100 µM
TGI (T-47D breast): > 100 µM
TGI (K-562 leukemia): > 100 µM
TGI (NCI-H23 lung): > 100 µM
TGI (UO-31 renal): > 100 µM
TGI (SF-295 CNS): > 100 µM
TGI (OVCAR-3 ovarian): > 100 µM
TGI (LOX IMVI melanoma): > 100 µM
TGI (CCRF-CEM leukemia): > 100 µM
TGI (HOP-62 NSCLC): > 100 µM
TGI (MOLT-4 leukemia): > 100 µM
TGI (OVCAR-8 ovarian): > 100 µM
TGI (MDA-N): > 100 µM
TGI (OVCAR-5 ovarian): > 100 µM
TGI (MDA-MB-231 breast): > 100 µM
TGI (A498 renal): > 100 µM
TGI (A549 NSCLC): > 100 µM
TGI (NCI-H460 lung): > 100 µM
TGI (NCI-H226 lung): > 100 µM
TGI (MALME-3M melanoma): > 100 µM
TGI (SN12C renal): > 100 µM
TGI (MCF7 breast): > 100 µM
TGI (SF-539 CNS): > 100 µM
TGI (M14 melanoma): > 100 µM
TGI (ACHN renal): > 100 µM
TGI (HS 578T breast): > 100 µM
TGI (HCT-116 colon): > 100 µM
